This is an account of results in US20210261524A1, “THERAPEUTIC COMPOUNDS AND COMPOSITIONS” (Exithera Pharmaceuticals, Inc., priority 2018, published 2021).

The series has as its system blood coagulation components. The following applies: dog, in vivo. The protocol: The following parameters and endpoints were evaluated in this study: mortality, body weight, physical, clinical pathology parameters (hematology and coagulation), […], and bioanalytical parameters.
The vehicle and test article were administered via intravenous (IV) infusion once on Day 1 for 135 minutes (initiated 30 minutes prior to starting the Cardiopulmonary Bypass (CPB) and continuing for 105 minutes of CPB). Group 2 animals received a […] IV bolus dose immediately prior to the start of IV infusion. Group 3, 4, and 5 animals received a 10 mg/kg IV bolus dose prior to the start of the IV infusion; with the CPB machine primed with test article at 10 μg/mL.
Infusion of the Compound 1 was started 30 minutes prior to the animal being placed on the CPB pump. The CPB pump was primed with 0.9% saline.
Venous and arterial sheaths were flushed with the Compound 1 at a concentration of 10 μg/mL. An IV bolus dose of the test article was administered immediately prior to the start of the infusion. Infusion of Compound 1 was started 30 minutes prior to the animal being placed on the CPB pump. The CPB […] was primed with 10 μg/mL of the Compound 1 prior to initiation of the CPB pump.
An IV bolus dose of the Compound 1 was administered immediately prior to the start of the infusion. […]

Regarding `C[C@@H](NC(=O)N1C(=O)[C@H](Cc2ccnc(N)c2)[C@H]1C(=O)O)C1CCCCC1` [Compound 1, (2S,3R)-3-((2-aminopyridin-4-yl)methyl)-1-(((R)-1-cyclohexylethyl)carbamoyl)-4-oxoazetidine-2-carboxylic acid], the morbidity or mortality entry is reported as “not associated with any increases in morbidity or mortality” and the “mortality (survival to study termination)” value is given as “All animals survived to study termination”.
